{"source": "patent US20230277449A1", "about": "“ORAL CAVITY POLYMERIC DELIVERY SYSTEMS” (YISSUM RESEARCH DEVELOPMENT COMPANY OF THE HEBREW …, priority 2020, published 2023)", "key": {"[1]": {"conditions": "pig, in vivo, iv, 1 mg/kg", "experimental": "2.1.7 In-vivo protocol of IV administration: Domestic female pigs (sus scrofa domesticus) of 35-40 kg were allowed to acclimate before the experiment. Pigs were fasted overnight before the experiments. On the morning of the experiment pigs were anesthetized by xylazine 1 mg/kg, midazolam 0.04 mg/kg, ketamine 5 mg/kg and propofol 4 mg/kg. Pigs were positioned on their back. Endotracheal tube was inserted, and pigs were respired with oxygen. […] Catheter was inserted into ear vein through which physiological saline was administered. Pigs received amoxicillin 15 mg/kg antibiotic and tolfenamic acid 2 mg/kg analgesic. An intra-jugular catheter was inserted for blood sampling. Pigs were constantly monitored for their respiration rate, rectal temperature, O2 saturation, heart rate and blood pressure. Cardiovascular parameters were obtained by blood pressure monitor with porcine adapted front leg cuff. […] Plasma was collected into tubes containing 10 µl mercaptoethanol and stored at -80° C. pending analysis. Isoflurane anesthesia was terminated, and pigs were recovered under veterinary surveillance to consciousness.\nThe samples were reconstituted in 100 µl 1:4 MeOH:DDW solution containing 0.01%^v/v formic acid and 0.1%^v/v mercaptoethanol and injected into LC-MS-MS system.\n2.1.12 Chromatographic analysis of in-vivo samples: The chromatography was performed using a Shimadzu UHPLC System. The chromatographic separations were performed on a Kinetex™ (Phenomenex, CA, USA) column (EVO C18, 2.6 µm, 100 Å, 100 × 2.1 mm), protected by a SecurityGuard™ (Phenomenex, CA, USA) ULTRA cartridge (C18, 4 × 2 mm). The injection volume was 5 µl, temperature was 40° C.\nFollowing this analysis PK parameters were obtained."}, "[2]": {"assay": "Monitored vital parameters after CBD and TPH administration to the mucosa of pigs", "type": "in vivo, pig", "conditions": "median (lowest - highest)", "from_the_text": "Israel. […] Pigs were fasted overnight before the experiments. […] They were positioned on their back."}, "[3]": {"assay": "In-vivo oral mucosal administration of CBD and TPH in mucoadhesive shell to pigs", "text": "4.1.6 In-vivo experiment protocol: Domestic female pigs (sus scrofa domesticus) of 35 - 40 kg body weight were obtained from Lahav ltd. […] After arrival to the unit for experimental surgery at Hadassah Ein-Kerem medical center (Jerusalem, Israel) they were allowed to acclimate during a period of a week with free access to food and water, and were under veterinary surveillance. Pigs were fasted overnight before the experiments. On the morning of the experiment pigs were anesthetized by xylazine 1 mg/kg, midazolam 0.04 mg/kg, ketamine 5 mg/kg and propofol 4 mg/kg. They were positioned on their back. Endotracheal tube was inserted, and pigs were respired with oxygen. […] Catheter was inserted into the ear vein through which physiological saline was administered. Pigs received amoxicillin 15 mg/kg antibiotic and tolfenamic acid 2 mg/kg analgesic. An intra-jugular catheter was inserted for blood sampling. Pigs were constantly monitored for their respiration rate, rectal temperature, O2 saturation, heart rate and blood pressure. Cardiovascular parameters were obtained by blood pressure monitor with porcine adapted front leg cuff. […] A mucoadhesive “shell” was adhered to it and pressed with finger for 1 min, to ensure full adhesion. […] Visual inspection approved that the mucoadhesive “shell” was fully adhered to the mucosa and there were no leakages. […] Plasma was separated and stored at -80° C. pending analysis. At 8 hours mucoadhesive “shell” was removed, the mucosa was carefully cleaned with a gauze, so that no CBD and TPH will remain on its surface. At 12 hours pigs were euthanized by injection of overdose of KCl.\nThe samples were reconstituted in 100 µl 1:4 MeOH:DDW solution containing 0.01%^v/v formic acid and injected into LC-MS-MS.\n4.1.9 Chromatographic analysis of CBD from in-vivo study: The chromatography was performed using a Thermo Scientific (San Jose, CA, USA) UHPLC System, which includes Dionex Pump with degasser module and an Accela Autosampler. […]"}, "[4]": {"conditions": "cited from earlier work"}, "[5]": {"conditions": "cited from earlier work", "remark": "listed apart in the source"}, "in vitro": {"assay": "in vitro", "conditions": "female, pig, pH 7.4", "text": "Each chamber includes a heating block for temperature control and needle valves for adjustment of carbogen gas flow for oxygenation and gas lift stirring. Buccal tissues of female pigs, ~100 kg, were used in the experiments. […] Pigs were exposed to anesthetic agents, antibiotics, contrast agents and sacrificed by over exposure to KCl. […] Immediately following euthanasia, buccal tissue was removed and placed in ice-cold modified Ringer’s buffer (pH 7.4). Buccal mucosa segments were trimmed to 800-1000 µm by surgical scissors and tweezers and mounted into Ussing diffusional chambers. The exposed tissue surface area was 0.5 cm^2 and buffered solutions volume in each cell was 3 ml. The system was preheated to 35 (±1)°C. Modified Ringer’s buffer containing 4% bovine serum albumin was added to the receiver side and simulated saliva buffer to the donor side. The tissue oxygenation and the solution mixing were performed by bubbling with carbogen gas. The system was equilibrated for 30 min followed by replacing the solutions and adding 20 µl of the test solutions to the donor side of the chamber to commence the experiment.\n4.1.12 Equations utilized: Apparent permeability (Papp) is calculated by Eq. 8: […]"}, "[6]": {"assay": "Ex-vivo permeability of APO, MTP and ATN in Ussing diffusion chamber", "type": "in vitro ADME, pig", "conditions": "for Papp at 0.1 mM: n=3", "from_the_text": "Each chamber includes a heating block for temperature control and needle valves for adjustment of carbogen gas flow for oxygenation and gas lift stirring. Buccal tissues of female pigs, ~100 kg, were used in the experiments. Pigs were exposed to anesthetic agents, antibiotics, contrast agents and sacrificed by over exposure to KC1. […] Immediately following euthanasia, buccal tissue was removed and placed in ice-cold modified Ringer’s buffer (pH 7.4). Buccal mucosa segments were trimmed to 800-1000 µm by surgical scissors and tweezers and mounted into Ussing diffusion chambers. The exposed tissue surface area was 0.5 cm^2 and buffered solutions volume in each cell was 3 ml. The system was preheated to 35° C. Modified Ringer buffer was added to the receiver compartment and simulated saliva buffer to the donor side. The tissue oxygenation and the solution mixing were performed by bubbling with carbogen gas. The system was equilibrated for 30 min followed by replacing the solutions and adding 20 µl of the test solutions to the donor side of the chamber to commence the experiment.\nSolutions were freshly prepared on the days of the experiments. […] When testing the effect of organic solvents, 100 µl of the simulated saliva in the donor chamber were replaced by 100 µl of 1:1EtOH:PG solution. When testing the effect of NLF 70 µl of the simulated saliva in the donor chamber were replaced by 70 µl of NLF. […] The constituents are melted at 37° C. and mixed until a clear yellow homogenous solution is obtained.\n3.1.3 Experimental protocol: 100 µl samples were taken from receiver compartment at the beginning of the experiments, at half an hour and every hour until the end of the experiments. 100 µl of fresh Ringer’s buffer solution were added each time to receiver compartment. The dilution of the concentration of tested substances in the receiver compartment was accounted for. […] All samples were stored at -20° C. pending analysis.\nThe analysis conditions were as follows: XTerra MS (Waters Inc.) C18 Column (3.5 µm, 2.1 mm × 100 mm), temperature 45° C., flow rate 0.2 ml/min and mobile phase with a linear gradient as detailed in Table 23.\nStatistical significance was stated for p<0.05. […] Papp calculation and simulations of steady state plasma levels for in-vivo testing\nApparent permeability (Papp) is calculated by Eq. 5: […]"}, "[7]": {"conditions": "in vivo"}, "[8]": {"assay": "Insulin release from mucoadhesive tablets in physiologic media", "type": "physicochemical", "method": "Peptides or proteins stabilized or encapsulated into nanoparticles, microparticles or liposomes were mixed in CP and HPC as described above and compressed into tablets. In a typical example, insulin zinc salt powder at 1% of the solids was added to the tablet composition and compressed into tablets. Insulin was released for 10 h from the tablets when placed in physiologic media. PLGA microspheres loaded with 50% insulin prepared by precipitation of concentrated alcoholic-dichloromethane solution into an anti-solvent, heptane. Particles at 10% of the non-active agents were added to the tablet powder and compressed into tablets. Anti-inflammatory protein such as Adiponectin, antimicrobial and antiviral proteins are also considered for buccal delivery."}}, "note": "Several values for one entry are separate records, joined by “and”; a condition that tells them apart may be missing. Equal values may be shown once. Read-outs that look alike come from different tables or passages of the source.", "data": [{"compound": "CN1CCc2cccc3c2C1CC1=C3C(=O)C(=O)C=C1", "note": "(centres unmarked) [APO-quinone]", "values": [{"measurement": "half-lives of metabolites", "setting": "[1]", "result": "25.5 (±2.0) min"}]}, {"compound": "C=C(C)[C@@H]1CCC(C)=C[C@H]1c1c(O)cc(CCCCC)cc1O", "note": "[CBD, cannabidiol]", "values": [{"measurement": "Diastolic blood press (mmHg)", "setting": "[2]; CBD with TPH", "result": "37 (29 - 46) mmHg"}, {"measurement": "Heart rate (beats/min)", "setting": "[2]; CBD with TPH", "result": "98 (79 - 123) beats/min"}, {"measurement": "O2 satur (%)", "setting": "[2]; CBD with TPH", "result": "99 (90 - 100) %"}, {"measurement": "Respiration rate (min^-1)", "setting": "[2]; CBD with TPH", "result": "10 (10-13) min^-1"}, {"measurement": "Systolic blood press (mmHg)", "setting": "[2]; CBD with TPH", "result": "77 (68 - 87) mmHg"}, {"measurement": "Rectal temp (°C)", "setting": "[2]; CBD ~0.42 mg/kg with TPH ~0.11 mg/kg, three pigs", "result": "37.4 (36.8 - 38.8) °C"}, {"measurement": "Css", "setting": "[3]; ~0.42 mg/kg CBD, 30.0 mg/ml, 8 h exposure", "result": "not reached"}, {"measurement": "steady state volume of distribution", "setting": "[4]; humans, IV administration", "result": 30, "unit": "L/kg"}, {"measurement": "aqueous solubility", "setting": "[5]", "result": "~ 12 µg/ml and ~ 0.04 mM"}, {"measurement": "log P", "setting": "[5]", "result": "~ 6"}]}, {"compound": "COCCc1ccc(OCC(O)CNC(C)C)cc1", "note": "(centres unmarked) [MTP, metoprolol]", "values": [{"measurement": "Papp at 6 h", "setting": "in vitro", "result": 1.02, "unit": "×10⁻⁶ cm/s"}, {"measurement": "Papp at 6 h, 34 µg/ml", "setting": "in vitro", "result": 9.89, "unit": "×10⁻⁶ cm/s"}, {"measurement": "Papp lower at pH 5.9 than at pH 7.4", "setting": "[6]", "result": 2, "unit": "fold"}, {"measurement": "Papp", "setting": "[6]; female, pig, pH 7.4 with 3.33% v/v of 1:1 ethanol: propylene glycol solution, read-out: Apparent permeability (Papp)", "result": 7.24, "unit": "×10⁻⁶ cm/s"}, {"measurement": "Papp at 0.1 mM", "setting": "[6]; female, pig, simulated saliva pH 5.9, mean (±SD), read-out: Apparent permeability (Papp)", "result": 1.11, "unit": "×10⁻⁶ cm/s"}, {"measurement": "Papp at 0.1 mM", "setting": "[6]; female, pig, simulated saliva pH 7.4, standard 0.1 mM, mean (±SD), read-out: Apparent permeability (Papp)", "result": 2.48, "unit": "×10⁻⁶ cm/s"}]}, {"compound": "Cn1c(=O)c2[nH]cnc2n(C)c1=O", "note": "[TPH, theophylline]", "values": [{"measurement": "TPH plateau higher than the highest plasma level of CBD", "setting": "[3]; considering the molar dose administered", "result": 300, "unit": "fold"}, {"measurement": "time to plateau of plasma levels (lag-time)", "setting": "[3]; ~0.11 mg/kg TPH, 8.0 mg/ml, 1.58 cm^2, three pigs", "result": 5, "unit": "h"}, {"measurement": "CL", "setting": "[4]; in vivo", "result": "0.283 to 0.67", "unit": "mL/min/kg"}, {"measurement": "CL slower than CBD", "setting": "[7]", "result": "~ 50 fold"}, {"measurement": "log P", "setting": "[5]", "result": "~ 0"}]}, {"compound": "Insulin: insulin zinc salt powder at 1% of the solids in CP and HPC tablets", "values": [{"measurement": "duration of insulin release", "setting": "[8]", "result": 10, "unit": "h"}]}]}
